Where no end group is shown, it is not given here.
Key:
[1] = tested on: 3T3-L1 adipocytes; assay: Insulin-stimulated glucose uptake in adipocytes; type: cell-based; conditions: 3T3-L1 adipocytes in culture; without any PST variant present
From the text: Mutant PST peptides were synthesized and screened. The peptides were synthesized as various deletion peptides of PST. Native PST (SEQ ID NO. 2) inhibited insulin-stimulated glucose uptake and leptin production in adipocytes. The inventors tested various deletion mutant PST peptides whether one or more of them would compete and prevent native PST action in adipocytes.

[2] = tested on: KO-NCD mice; assay: GTT in NCD-fed Chga-KO mice (acute and chronic); type: in vivo
Protocol: (§1) For glucose tolerance tests (GTT), glucose (1 mg/g) was injected intraperitoneally (IP-GTT) (at time zero) or gavaged orally (O-GTT) after a 12-hours fast. Tail-vein glucose levels were measured at −30, 0, 15, 30, 60, 90, and 120 minutes. For insulin tolerance tests (ITT), insulin (0.4 mU/g) was injected intraperitoneally and blood glucose levels were measured at the indicated time points. Chronic PST (5 μg/g/day) and PSTv1 (10 μg/day) treatments were carried out for 15 days. For acute treatment, either peptides or saline were injected 30 minutes before glucose or insulin injection. Synergy Software Kaleidagraph Version 4.0 calculated the area under the curve (AUC) for each line curve.
To determine acute effects, NCD fed Chga-KO mice (KO-NCD) were fasted for 12 hrs, treated with saline, PST (5 μg/g BW), PSTv1 (10 μg/g BW) or PST+PSTv1 for 30 min (−30 min) before injecting glucose (0 min) for (FIG. 14A) IP-GTT (2-way ANOVA: Treatment (Sal vs PST), p<0.0001, Time, p<0.0001; Interaction, p<0.002; Treatment (PST vs PSTv1), p<0.0001; Time, p<0.0001; Interaction, p<0.005; n=7). The corresponding AUC is shown in (FIG. 14B). […]

[3] = tested on: WT-NCD mice; assay: IP-ITT in WT-NCD mice; type: in vivo; conditions: chronic PST 5 μg/g BW for 15 days; WT mice on NCD
Protocol: as §1
Treatment with the PST variant PSTv1 improves, whereas PST worsens, glucose tolerance and insulin sensitivity in WT-DIO and WT-NCD mice. WT-DIO mice were treated with saline or PSTv1 (10 μg/g BW/day) for 15 days. Weight-matched DIO mice were fasted for 12 hrs and subjected to IP-GTT (2-way ANOVA: Treatment, p<0.0001; Time, p<0.0001; Interaction, p=0.17, n=6, as shown in FIG. 13A) and IP-ITT (2-way ANOVA: Treatment, p<0.0001; Time, p<0.0001; Interaction, p=0.62 n=9, as shown in FIG. 13C) and AUCs for glucose excursions were determined (as shown in FIGS. 13B and 13D). […]

[4] = tested on: KO-DIO mice; assay: Adipose tissue inflammatory genes and plasma cytokines in PST-treated KO-DIO mice; type: in vivo; conditions: PST 5 μg/g BW for 15 days
Protocol: RNA from tissues was extracted using a kit (RNeasy Plus, Qiagen, Valencia, Calif.). After DNase digestion, 200 ng of RNA was transcribed into cDNA in a 20-μl reaction using a High Capacity cDNA Archive kit and this cDNA was amplified. PCR (25-μl reactions) contained 5 μl of cDNA, 2×SYBR Green PCR Master Mix, and 400 nM of each primer. Differences in the threshold cycle number (ΔCt) between the target gene, the housekeeping gene Gapdh and the ribosomal protein gene 36B4 were used to calculate differences in expression. Primer sequences are provided below.
Plasma cytokine concentrations were determined by a multiplex system from Quansys Biosciences (Logan, Utah).
As shown in FIGS. 17A-17H, PST modulates adipose tissue inflammation. A group of KO-DIO mice were injected with saline or PST (5 μg/g BW) for 15 days. Weight-matched saline-treated WT-DIO, KO-DIO and PST-treated KO-DIO mice were fasted for 12 hr and sacrificed. Blood was collected to measure plasma cytokine levels. Tissues were subjected to RNA extraction, cDNA preparation and RT-qPCR analysis for cytokines (FIG. 17A, n=6), pro-inflammatory genes (FIG. 17B: Cd11c & IL-12p40, n=6; FIG. 17C: iNos, n=6), and anti-inflammatory genes (FIG. 17D: Arg-1 & IL-10, n=6; FIG. 17E: Mgl-1, Mgl-2 and Ym1, n=6). “*” Denotes comparison between the indicated groups. “*”: P<0.05, “**”: p<0.01, “***”: p<0.001.

PEGKGEQEHSQQKEEEEEMAVVPQGLFRG-amide (PEGKGEQEHSQQKEEEEEMAVVPQGLFRG-NH2) [PST, Wild-type human pancreastatin, a chromogranin A derived peptide]
inhibition of insulin-stimulated glucose uptake [1]: 35% | blood glucose after acute PST treatment ([2]; acute, Chga-KO mice on normal chow diet): induces hyperglycemia | insulin sensitivity (GTT) ([2]; chronic PST 5 μg/g BW for 15 days, Chga-KO mice on NCD): induced insulin resistance | insulin sensitivity (IP-ITT) [3]: induced insulin resistance | plasma levels of IL-12p70 and Mcp-1 [4]: raised | plasma levels of Ifnγ, IL-6, Mip-1α, Kc and Tnfα [4]: had no effect | expression of Arg-1 and IL-10 ([4]; adipose tissue): significantly reduced | expression of Mgl-1 or Mgl-2 ([4]; adipose tissue): had no effect | expression of Ym-1 ([4]; adipose tissue): trend toward downregulating | expression of pro-inflammatory genes IL-1β, Tnfα, IL-6, Mcp-1 and iNos ([4]; adipose tissue): increased expression
